Results published in PubChem BioAssay AID210 (DTP/NCI, 2004).
Toxic doses and inconclusive results are not listed.

Tested on: CD2F1 mice, ip Colon 26 adenocarcinoma, median survival T/C
Assay: NCI In Vivo Anticancer Drug Screen. Data for tumor model Colon 26 Adenocarcinoma (intraperitoneal) in CD2F1 (CDF1) mice
Conditions: endpoint: median survival time, higher = longer survival
Procedure: The antitumor activity of compounds was measured in mice bearing transplantable tumors. Survival or tumor size were measured and the results are expressed as the measurement made in the treated group (T) divided by the measurement made in the vehicle treated control group (C). The tumor model used in this assay is Colon 26 Adenocarcinoma (intraperitoneal) in CD2F1 (CDF1) mice

[1] = dose: 8.0 mg/kg/injection, schedule: Q01DX009 (ip), vehicle: acid diluted with saline
[2] = dose: 16.0 mg/kg/injection, schedule: Q01DX009 (ip), vehicle: acid diluted with saline

N[C@@H](Cc1ccc(N(CCCl)CCCl)cc1)C(=O)O
T/C (dose: 1.0 mg/kg/injection, schedule: Q04DX002 (ip), vehicle: suspension in saline): 162 % of control | T/C (dose: 1.25 mg/kg/injection, schedule: Q04DX003 (ip), vehicle: saline): 175 % of control | T/C (dose: 2.0 mg/kg/injection, schedule: Q04DX002 (ip), vehicle: suspension in saline): 231 % of control | T/C (dose: 2.5 mg/kg/injection, schedule: Q04DX003 (ip), vehicle: suspension in saline): 181 % of control | T/C (dose: 4.0 mg/kg/injection, schedule: Q04DX002 (ip), vehicle: suspension in saline): 249 % of control | T/C (dose: 5.0 mg/kg/injection, schedule: Q04DX003 (ip), vehicle: suspension in saline): 186 % of control | T/C (dose: 8.0 mg/kg/injection, schedule: Q04DX002 (ip), vehicle: suspension in saline): 277 % of control | T/C (dose: 10.0 mg/kg/injection, schedule: Q04DX003 (ip), vehicle: suspension in saline): 182 % of control | T/C (dose: 16.0 mg/kg/injection, schedule: Q04DX002 (ip), vehicle: suspension in saline): 226 % of control | T/C (dose: 20.0 mg/kg/injection, schedule: Q04DX003 (ip), vehicle: suspension in saline): 216 % of control

COc1ccc(CC2C(=O)NC(C)C(=O)N(C)C3C(=O)N(C)C(Cc4ccc(O)c(c4)Oc4ccc(cc4)C3O)C(=O)NC(C)C(=O)NC(C)C(=O)N2C)cc1 (configuration not stated) (tested in a mixture with another compound)
T/C (dose: 0.5 mg/kg/injection, schedule: Q04DX003 (ip), vehicle: saline): 98 % of control | T/C (dose: 1.0 mg/kg/injection, schedule: Q04DX003 (ip), vehicle: saline): 98 % of control | T/C (dose: 2.0 mg/kg/injection, schedule: Q04DX003 (ip), vehicle: saline): 99 % of control

CCC1(O)CC2CN(CCc3c([nH]c4ccccc34)C(C(=O)OC)(c3cc4c(cc3OC)N(C)C3C(O)(C(=O)NCCSSCCNC(=O)C5(O)C(O)C6(CC)C=CCN7CCC8(c9cc(C%10(C(=O)OC)CC%11CN(CCc%12c%10[nH]c%10ccccc%12%10)CC(O)(CC)C%11)c(OC)cc9N(C)C58)C76)C(O)C5(CC)C=CCN6CCC43C65)C2)C1 (configuration not stated)
T/C (dose: 540.0 micrograms/kg/injection, schedule: Q04DX003 (ip), vehicle: saline): 114 % of control | T/C (dose: 900.0 micrograms/kg/injection, schedule: Q04DX003 (ip), vehicle: saline): 114 % of control | T/C (dose: 1500.0 micrograms/kg/injection, schedule: Q04DX003 (ip), vehicle: saline): 96 % of control

CCCCCC(=O)O[C@]1(C(C)=O)CC[C@H]2[C@@H]3CCC4=CC(=O)CC[C@]4(C)[C@H]3CC[C@@]21C
T/C (dose: 25.0 mg/kg/injection, schedule: Q04DX003 (ip), vehicle: Klucel (hydroxypropylcellulose) (HPC)): 101 % of control | T/C (dose: 50.0 mg/kg/injection, schedule: Q04DX003 (ip), vehicle: Klucel (hydroxypropylcellulose) (HPC)): 106 % of control | T/C (dose: 100.0 mg/kg/injection, schedule: Q04DX003 (ip), vehicle: Klucel (hydroxypropylcellulose) (HPC)): 100 % of control | T/C (dose: 200.0 mg/kg/injection, schedule: Q04DX003 (ip), vehicle: Klucel (hydroxypropylcellulose) (HPC)): 106 % of control | T/C (dose: 400.0 mg/kg/injection, schedule: Q04DX003 (ip), vehicle: Klucel (hydroxypropylcellulose) (HPC)): 103 % of control

N/C(=N\O)c1cn(C2OC(CO)C(O)C2O)c2ncnc(N)c12 (configuration not stated)
T/C (dose: 2.0 mg/kg/injection, schedule: Q04DX003 (ip), vehicle: Klucel (hydroxypropylcellulose) (HPC)): 116 % of control | T/C (dose: 16.0 mg/kg/injection, schedule: Q04DX003 (ip), vehicle: Klucel (hydroxypropylcellulose) (HPC)): 167 % of control

CCSC(=O)N1c2ccc(OC)cc2C=CC1C#N (configuration not stated)
T/C (dose: 12.5 mg/kg/injection, schedule: Q04DX003 (ip), vehicle: saline with Tween-80): 106 % of control | T/C (dose: 25.0 mg/kg/injection, schedule: Q04DX003 (ip), vehicle: saline with Tween-80): 104 % of control | T/C (dose: 50.0 mg/kg/injection, schedule: Q04DX003 (ip), vehicle: saline with Tween-80): 110 % of control | T/C (dose: 100.0 mg/kg/injection, schedule: Q04DX003 (ip), vehicle: saline with Tween-80): 107 % of control | T/C (dose: 175.0 mg/kg/injection, schedule: Q04DX002 (ip), vehicle: saline with Tween-80): 110 % of control | T/C (dose: 200.0 mg/kg/injection, schedule: Q04DX003 (ip), vehicle: saline with Tween-80): 109 % of control | T/C (dose: 350.0 mg/kg/injection, schedule: Q04DX002 (ip), vehicle: saline with Tween-80): 124 % of control | T/C (dose: 400.0 mg/kg/injection, schedule: Q04DX003 (ip), vehicle: saline with Tween-80): 115 % of control | T/C (dose: 700.0 mg/kg/injection, schedule: Q04DX002 (ip), vehicle: saline with Tween-80): 100 % of control | T/C (dose: 1400.0 mg/kg/injection, schedule: Q04DX002 (ip), vehicle: saline with Tween-80): 98 % of control

O=C(O)CC(NC(=O)CP(=O)(O)O)C(=O)O (configuration not stated)
T/C (dose: 108.0 mg/kg/injection, schedule: Q04DX003 (ip), vehicle: saline): 119 % of control | T/C (dose: 180.0 mg/kg/injection, schedule: Q04DX003 (ip), vehicle: saline): 115 % of control | T/C (dose: 180.0 mg/kg/injection, schedule: Q04DX003 (ip), vehicle: water): 161 % of control | T/C (dose: 300.0 mg/kg/injection, schedule: Q04DX003 (ip), vehicle: water): 106 % of control | T/C (dose: 833.0 mg/kg/injection, schedule: Q04DX003 (ip), vehicle: saline): 187 % of control

COc1cccc2c1C(=O)c1c(O)c3c(c(O)c1C2=O)C[C@@](O)(C(=O)COC(=O)c1cccnc1)C[C@@H]3OC1CC(N)C(O)C(C)O1 (some centres not stated)
T/C (dose: 5.5 mg/kg/injection, schedule: Q07DX003 (iv), vehicle: other): 113 % of control | T/C (dose: 8.5 mg/kg/injection, schedule: Q07DX003 (iv), vehicle: other): 108 % of control | T/C (dose: 13.1 mg/kg/injection, schedule: Q07DX003 (iv), vehicle: other): 114 % of control | T/C (dose: 17.0 mg/kg/injection, schedule: Q07DX002 (iv), vehicle: alkali diluted with saline): 99 % of control | T/C (dose: 20.3 mg/kg/injection, schedule: Q07DX003 (iv), vehicle: other): 115 % of control | T/C (dose: 26.0 mg/kg/injection, schedule: Q07DX002 (iv), vehicle: alkali diluted with saline): 94 % of control

COc1cccc2c1C(=O)c1c(O)c3c(c(O)c1C2=O)C[C@@](O)(C(C)=O)C[C@@H]3OC1CC(N(C)C)C(O)C(C)O1 (some centres not stated)
T/C (dose: 4.5 mg/kg/injection, schedule: Q07DX002 (iv), vehicle: saline): 109 % of control | T/C (dose: 5.4 mg/kg/injection, schedule: Q04DX003 (ip), vehicle: water): 119 % of control | T/C (dose: 7.0 mg/kg/injection, schedule: Q07DX002 (iv), vehicle: saline): 114 % of control | T/C (dose: 11.0 mg/kg/injection, schedule: Q07DX002 (iv), vehicle: saline): 113 % of control | T/C (dose: 15.0 mg/kg/injection, schedule: Q04DX003 (ip), vehicle: water): 88 % of control | T/C (dose: 18.0 mg/kg/injection, schedule: Q07DX002 (iv), vehicle: saline): 109 % of control | T/C (dose: 27.0 mg/kg/injection, schedule: Q07DX002 (iv), vehicle: saline): 108 % of control | T/C (dose: 41.0 mg/kg/injection, schedule: Q07DX002 (iv), vehicle: saline): 94 % of control

C/C=C(\C)C(=O)OC1C(C)C2(O)C(C=C(CO)CC3(O)C(=O)C(C)=CC32)C2C(C)(C)C12OC(=O)CCCCCCCCC (configuration not stated)
T/C (dose: 0.03 mg/kg/injection, schedule: Q04DX003 (ip), vehicle: saline + alcohol): 93 % of control | T/C (dose: 0.06 mg/kg/injection, schedule: Q04DX003 (ip), vehicle: saline + alcohol): 86 % of control | T/C (dose: 0.13 mg/kg/injection, schedule: Q04DX003 (ip), vehicle: saline + alcohol): 90 % of control | T/C (dose: 0.25 mg/kg/injection, schedule: Q04DX003 (ip), vehicle: saline + alcohol): 86 % of control

O=C1c2ccccc2C(=O)c2c(NCCNCCNCCO)ccc(NCCNCCNCCO)c21
T/C [1]: 102 % of control | T/C [2]: 97 % of control | T/C (dose: 32.0 mg/kg/injection, schedule: Q01DX009 (ip), vehicle: acid diluted with saline): 107 % of control | T/C (dose: 64.0 mg/kg/injection, schedule: Q01DX009 (ip), vehicle: acid diluted with saline): 103 % of control | T/C (dose: 128.0 mg/kg/injection, schedule: Q01DX009 (ip), vehicle: acid diluted with saline): 87 % of control

CN(C)CCCNc1cccc2c1C(=O)c1cccc(NCCCN(C)C)c1C2=O
T/C (dose: 8.0 mg/kg/injection, schedule: Q01DX009 (ip), vehicle: saline): 106 % of control | T/C (dose: 16.0 mg/kg/injection, schedule: Q01DX009 (ip), vehicle: saline): 100 % of control | T/C (dose: 32.0 mg/kg/injection, schedule: Q01DX009 (ip), vehicle: saline): 87 % of control

CCCNCCNc1ccc(NCCNCCC)c2c1C(=O)c1ccccc1C2=O
T/C (dose: 4.0 mg/kg/injection, schedule: Q01DX009 (ip), vehicle: acid diluted with saline): 106 % of control | T/C [1]: 98 % of control | T/C [2]: 100 % of control
